# Reference: patent US8754079B2, “Cycloalkyl containing thienopyrimidines for pharmaceutical compositions” (Boehringer Ingelheim International GmbH, priority 2010, dated 2014)
# Biological target: T1, MNK2 (Homo sapiens, UniProt Q9HBH9)
# T1 construct: the open reading frames of human Mnk1 and Mnk2a were amplified from cDNA; made in house; host or cells: E. coli BL21
# Test: Mnk2a in vitro kinase assay (indirect fluorescence polarization)
# Assay type: biochemical
# Conditions: pre-activated GST-Mnk2a 2.5 nM, 20 μM ATP, 30 μM substrate peptide
# In short: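 Human GST-Mnk2a was expressed in E. coli and activated in vitro with 150 nM pre-activated ERK2 and 50 μM ATP in HEPES pH 7.4/MgCl2 buffer (45 min, 30 °C). Activity on an eIF4E Ser209-derived 12mer peptide was read by competitive fluorescence polarization with a phospho-specific antibody.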
# T1 sequence (Q9HBH9 whole entry): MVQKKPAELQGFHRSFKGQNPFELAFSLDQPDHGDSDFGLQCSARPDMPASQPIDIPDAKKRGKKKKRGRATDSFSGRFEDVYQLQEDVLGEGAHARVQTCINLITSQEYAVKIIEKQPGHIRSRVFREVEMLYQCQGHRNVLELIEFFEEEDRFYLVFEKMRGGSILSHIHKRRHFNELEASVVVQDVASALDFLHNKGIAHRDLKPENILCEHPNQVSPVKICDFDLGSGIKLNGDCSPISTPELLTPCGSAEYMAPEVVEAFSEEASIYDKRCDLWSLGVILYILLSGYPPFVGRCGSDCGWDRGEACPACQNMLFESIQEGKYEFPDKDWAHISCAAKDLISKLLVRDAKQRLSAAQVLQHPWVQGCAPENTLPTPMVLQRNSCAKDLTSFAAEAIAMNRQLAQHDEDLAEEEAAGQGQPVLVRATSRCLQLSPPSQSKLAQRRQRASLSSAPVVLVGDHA
row,IC50,SMILES
1,17 nM,"CO[C@H]1CC[C@H](Oc2cc(F)ccc2Nc2ncnc3sc(C(=O)NCC4CCCNC4)c(C)c23)CC1 (stereo partly drawn) [Example 200, 4-[4-Fluoro-2-(trans-4-methoxy-cyclohexyloxy)-phenylamino]-5-methyl-thieno[2,3-d]pyrimidine-6-carboxylic acid (piperidin-3-ylmethyl)-amide]"
2,44 nM,CO[C@@H]1CCC[C@@H](Oc2cc(F)ccc2Nc2ncnc3sc(C(=O)NCc4cnco4)c(C)c23)C1 (racemic) [Example 82]
3,74 nM,Cc1c(C(N)=O)sc2ncnc(Nc3ccc(F)cc3O[C@H]3C[C@@H]4OC(C)(C)O[C@@H]4C3)c12 [Example 213]
4,105 nM,COC1CCCC(Oc2ncccc2Nc2ncnc3sc(C(=O)NCC(C)O)c(C)c23)C1 (mixture of isomers) [Example 146]
5,98 nM,COC1CCCC(Oc2cc(F)ccc2Nc2ncnc3sc(C(=O)NCCCCO)c(C)c23)C1 (stereo not shown) [Example 81]
6,10 nM,"Cc1c(C(=O)NCCCN(C)C)sc2ncnc(Nc3ccc(F)cc3OC3CCC(O)C3)c12 (stereo not shown) [Example 226, N-(3-(dimethylamino)propyl)-4-(4-fluoro-2-(3-hydroxycyclopentyloxy)phenylamino)-5-methylthieno[2,3-d]pyrimidine-6-carboxamide]"
7,21 nM,COC1CCCC(Oc2cc(F)ccc2Nc2ncnc3sc(C(=O)NCC#N)c(C)c23)C1 (stereo not shown) [Example 94]
8,16 nM,CO[C@H]1CCC[C@@H](Oc2cc(F)ccc2Nc2ncnc3sc(C(=O)NCc4cnco4)c(C)c23)C1 (racemic) [Example 93]
9,21 nM,"CO[C@H]1CC[C@H](Oc2cc(F)ccc2Nc2ncnc3sc(C(=O)NCCCN4CCOCC4)c(C)c23)CC1 [Example 192, 4-[4-Fluoro-2-(trans-4-methoxy-cyclohexyloxy)-phenylamino]-5-methyl-thieno[2,3-d]pyrimidine-6-carboxylic acid (3-morpholin-4-yl-propyl)-amide]"
10,255 nM,"Cc1c(C(=O)NCCCN2CCCC2)sc2ncnc(Nc3ccc(F)cc3OC3CCCCC3O)c12 (single isomer, unassigned) [Example 260]"
11,9 nM,"CO[C@H]1CC[C@H](Oc2ncccc2Nc2ncnc3sc(C(N)=O)c(C)c23)CC1 [Example 207, 4-[2-(trans-4-Methoxy-cyclohexyloxy)-pyridin-3-ylamino]-5-methyl-thieno[2,3-d]pyrimidine-6-carboxylic acid amide]"
12,65 nM,CO[C@@H]1CCC[C@@H](Oc2ncccc2Nc2ncnc3sc(C(=O)NCc4cnco4)c(C)c23)C1 (racemic) [Example 135]
13,18 nM,Cc1c(C(=O)NCCCN2CCCC2)sc2ncnc(Nc3ccc(F)cc3O[C@H]3CCC[C@H](O)C3)c12 [Example 75]
14,13 nM,Cc1c(C(=O)NCCCn2ccnc2)sc2ncnc(Nc3ccc(F)cc3O[C@H]3CC[C@H](O)CC3)c12 [Example 156]
15,19 nM,COC1CCCCC1Oc1cc(F)ccc1Nc1ncnc2sc(C(=O)NC3CCCC3O)c(C)c12 (stereo not shown) [Example 250]
16,15 nM,CO[C@H]1CC[C@H](Oc2cc(F)ccc2Nc2ncnc3sc(C(=O)NCC#N)c(C)c23)CC1 [Example 182]
17,346 nM,"Cc1c(C(=O)NC2CCN(C)CC2)sc2ncnc(Nc3ccc(F)cc3OC3CCCCC3O)c12 (single isomer, unassigned) [Example 259]"
18,13 nM,Cc1c(C(N)=O)sc2ncnc(Nc3ccc(F)cc3O[C@@H]3CCC[C@H]4OC(C)(C)O[C@@H]34)c12 (relative stereo) [Example 1]
19,61 nM,CO[C@@H]1CCC[C@@H](Oc2cc(F)ccc2Nc2ncnc3sc(C(=O)NCCCN(C)C)c(C)c23)C1 (racemic) [Example 88]
20,38 nM,Cc1c(C(N)=O)sc2ncnc(Nc3ccc(F)cc3O[C@@H]3C[C@@H]4OCO[C@@H]4C3)c12 [Example 218]
21,25 nM,CC(=O)N[C@H]1CC[C@H](Oc2cc(F)ccc2Nc2ncnc3sc(C(=O)NCCCN(C)C)c(C)c23)C1 [Example 237]
22,16 nM,Cc1c(C(=O)N[C@H]2C[C@@H]2N)sc2ncnc(Nc3ccc(F)cc3O[C@H]3CC[C@H](O)CC3)c12 [Example 159]
23,8 nM,Cc1c(C(N)=O)sc2ncnc(Nc3ccc(F)cc3O[C@@H]3C[C@@H](O)[C@@H](O)C3)c12 [Example 212]
24,23 nM,CO[C@H]1CCC[C@@H](Oc2ncccc2Nc2ncnc3sc(C(=O)NCCCO)c(C)c23)C1 (relative stereo) [Example 126]
25,61 nM,CC(=O)N[C@H]1C[C@H](Oc2cc(F)ccc2Nc2ncnc3sc(C(=O)NCCCN4CCCC4)c(C)c23)C1 [Example 39]
26,17 nM,COC1CCCC(Oc2cc(F)ccc2Nc2ncnc3sc(C(=O)NCC4CNCCO4)c(C)c23)C1 (mixture of isomers) [Example 98]

row,IC50,SMILES
1,16 nM,CO[C@H]1CCC[C@@H](Oc2cc(F)ccc2Nc2ncnc3sc(C(=O)NCC#CCN)c(C)c23)C1 (racemic) [Example 91]
2,24 nM,Cc1c(C(=O)NC2CCN(C)CC2)sc2ncnc(Nc3cccnc3O[C@H]3CC[C@H](O)CC3)c12 [Example 269]
3,23 nM,"Cc1c(C(N)=O)sc2ncnc(Nc3ccc(F)cc3O[C@H]3CC[C@H](N(C)S(C)(=O)=O)CC3)c12 [Example 4, 4-(4-Fluoro-2-(trans-4-(N-methylmethylsulfonamido)cyclohexyloxy)phenylamino)-5-methylthieno[2,3-d]pyrimidine-6-carboxamide]"
4,23 nM,CO[C@H]1CC[C@H](Oc2cc(F)ccc2Nc2ncnc3sc(C(=O)N[C@H]4CC[C@H](O)CC4)c(C)c23)CC1 [Example 183]
5,18 nM,Cc1c(C(N)=O)sc2ncnc(Nc3ccc(F)cc3O[C@@H]3CC[C@H](O)[C@@H]3O)c12 (relative stereo) [Example 223]
6,28 nM,CO[C@H]1CC[C@H](Oc2cc(F)ccc2Nc2ncnc3sc(C(=O)N[C@H]4C[C@@H]4N)c(C)c23)CC1 [Example 189]
7,34 nM,COC1CCCC(Oc2cc(F)ccc2Nc2ncnc3sc(C(=O)NC4CC4N)c(C)c23)C1 (stereo not shown) [Example 90]
8,13 nM,Cc1c(C(=O)NCc2cn(C)cn2)sc2ncnc(Nc3ccc(F)cc3O[C@@H]3CCC[C@@H](O)C3)c12 (racemic) [Example 76]
9,21 nM,CNC(=O)CNC(=O)c1sc2ncnc(Nc3ccc(F)cc3O[C@@H]3CCC[C@@H](O)C3)c2c1C (racemic) [Example 64]
10,26 nM,Cc1c(C(=O)NCCCCO)sc2ncnc(Nc3ccc(F)cc3O[C@@H]3CCC[C@@H](O)C3)c12 (racemic) [Example 61]
11,19 nM,CO[C@H]1CCC[C@@H](Oc2ncccc2Nc2ncnc3sc(C(=O)NCc4cn(C)cn4)c(C)c23)C1 (racemic) [Example 128]
12,1290 nM,"COC(=O)c1sc2ncnc(Nc3ccc(F)cc3O[C@@H]3CCCC[C@@H]3O)c2c1C (single isomer, unassigned) [Example 256, 4-[4-fluoro-2-(cis-2-hydroxy-cyclohexyloxy)-phenylamino]-5-methyl-thieno[2,3-d]pyrimidine-6-carboxylic acid methyl ester]"
13,37 nM,COC(=O)c1sc2ncnc(Nc3ccc(F)cc3OC3CCC(C)(C)CC3)c2c1C [Example 31.1]
14,390 nM,Cc1c(C(N)=O)sc2ncnc(Nc3ccc(F)cc3O[C@@H]3C[C@@H]4OC(C)(C)O[C@@H]4C3)c12 [Example 220]
15,9 nM,"CO[C@H]1CC[C@H](Oc2cc(F)ccc2Nc2ncnc3sc(C(N)=O)c(C)c23)CC1 [Example 175, 4-[4-Fluoro-2-(trans-4-methoxy-cyclohexyloxy)-phenylamino]-5-methyl-thieno[2,3-d]pyrimidine-6-carboxylic acid amide]"
16,7 nM,"COC(=O)N(C)[C@H]1CC[C@H](Oc2cc(F)ccc2Nc2ncnc3sc(C(N)=O)c(C)c23)CC1 [Example 11, Methyl trans-4-(2-(6-carbamoyl-5-methylthieno[2,3-d]pyrimidin-4-ylamino)-5-fluorophenoxy)cyclohexyl(methyl)carbamate]"
17,20 nM,Cc1c(C(=O)N[C@H]2CC[C@H](O)CC2)sc2ncnc(Nc3ccc(F)cc3O[C@H]3CC[C@H](O)CC3)c12 [Example 168]
18,28 nM,"CN[C@H]1CCC[C@@H](Oc2cc(F)ccc2Nc2ncnc3sc(C(N)=O)c(C)c23)C1 (relative stereo) [Example 17, 4-(4-Fluoro-2-(cis-3-(N-methylamino)cyclohexyloxy)phenylamino)-5-methylthieno[2,3-d]pyrimidine-6-carboxamide]"
19,31 nM,Cc1c(C(=O)NCC2COCCN2)sc2ncnc(Nc3ccc(F)cc3OC3CCCC(O)C3)c12 (mixture of isomers) [Example 68]
20,16 nM,CO[C@H]1CCC[C@@H](Oc2ncccc2Nc2ncnc3sc(C(=O)NCCCN4CCCC4)c(C)c23)C1 (racemic) [Example 127]
21,23 nM,Cc1c(C(=O)NCCN2CCCCC2)sc2ncnc(Nc3ccc(F)cc3O[C@@H]3CCC[C@@H](O)C3)c12 (racemic) [Example 72]
22,920 nM,"COCCN(C)[C@H]1CC[C@@H](Oc2cc(F)ccc2Nc2ncnc3sc(C(N)=O)c(C)c23)CC1 [Example 23, 4-(4-Fluoro-2-(cis-4-((2-methoxyethyl)(methyl)amino)cyclohexyloxy)phenylamino)-5-methylthieno[2,3-d]pyrimidine-6-carboxamide]"
23,66 nM,CC(=O)N[C@H]1C[C@H](Oc2cc(F)ccc2Nc2ncnc3sc(C(=O)NCCCN(C)C)c(C)c23)C1 [Example 36]
24,6 nM,CNC(=O)c1sc2ncnc(Nc3ccc(F)cc3O[C@H]3CC[C@H](NC(C)=O)C3)c2c1C [Example 235]
25,54 nM,"Cc1c(C(=O)NCCCN(C)C)sc2ncnc(Nc3ccc(F)cc3O[C@@H]3CCCC[C@H]3O)c12 [Example 53, 4-[4-Fluoro-2-((1R,2R)-2-hydroxy-cyclohexyloxy)-phenylamino]-5-methyl-thieno[2,3-d]pyrimidine-6-carboxylic acid (3-dimethylamino-propyl)-amide]"
26,31 nM,COC1CCCC(Oc2cc(F)ccc2Nc2ncnc3sc(C(=O)NCC#CCN)c(C)c23)C1 (stereo not shown) [Example 80]
